Experimental data taken from US20240262832A1, “SMALL MOLECULE MODULATORS OF GLUCOCEREBROSIDASE ACTIVITY AND USES THEREOF” (Vanqua Bio, Inc., priority 2021, published 2024).

target: T1, GCase (Homo sapiens, UniProt P04062); assay: activation of GCase in a live cell PFB assay in HELA cells; assay type: cell-based
T1 construct: endogenous in cells; host or cells: HeLa cells
T1 sequence (P04062 40-536): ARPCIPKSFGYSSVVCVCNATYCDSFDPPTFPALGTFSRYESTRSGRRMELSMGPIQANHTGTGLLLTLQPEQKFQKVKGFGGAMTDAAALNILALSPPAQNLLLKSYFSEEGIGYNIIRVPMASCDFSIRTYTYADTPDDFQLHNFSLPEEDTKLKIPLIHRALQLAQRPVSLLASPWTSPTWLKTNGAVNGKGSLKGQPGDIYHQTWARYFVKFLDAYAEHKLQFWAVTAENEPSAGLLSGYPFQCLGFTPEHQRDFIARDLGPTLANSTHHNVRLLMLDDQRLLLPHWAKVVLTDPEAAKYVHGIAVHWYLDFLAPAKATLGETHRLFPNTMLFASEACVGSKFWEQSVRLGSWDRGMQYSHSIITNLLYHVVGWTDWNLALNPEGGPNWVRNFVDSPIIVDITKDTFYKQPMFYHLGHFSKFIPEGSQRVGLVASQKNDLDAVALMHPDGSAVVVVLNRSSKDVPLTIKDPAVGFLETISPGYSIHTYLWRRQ

| Structure (SMILES) | EC50 [µM] |
| --- | --- |
| CC1CCC(COc2cccnc2C(F)(F)F)CN1C(=O)c1ccc2cc[nH]c2c1 (centres unmarked) [Compound 128, (1H-Indol-6-yl)(2-methyl-5-(((2-(trifluoromethyl)pyridin-3-yl)oxy)methyl)piperidin-1-yl)methanone] | 10 to 50 |
| Cc1ccccc1CCC(=O)N1CCCC(COc2ccccc2)C1 (centres unmarked) [Compound 129] | 10 to 50 |
| CCCCCCC(C)C(=O)N1CCCC(COc2ccccc2)C1 (centres unmarked) [Compound 132] | < 10 |
| CC(CSC(F)(F)F)C(=O)N1CCCC(COc2ccccc2)C1 (centres unmarked) [Compound 133] | > 100 |
| COc1ccc2c(c1)CCCC2CC(=O)N1CCCC(COc2ccccc2)C1 (centres unmarked) [Compound 135] | 10 to 50 |
| O=C(c1ncc(Cl)s1)N1CCCC(COc2ccccc2)C1 (centres unmarked) [Compound 137] | > 100 |
| CCc1nc2ccccc2n1CC(=O)N1CCCC(COc2ccccc2)C1 (centres unmarked) [Compound 140] | 10 to 50 |
| COc1cccc(C(C(=O)N2CCCC(COc3ccccc3)C2)C(C)C)c1 (centres unmarked) [Compound 141] | 10 to 50 |
| Cc1cnccc1-c1ccc(C(=O)N2CCCC(COc3ccccc3)C2)s1 (centres unmarked) [Compound 142] | < 10 |
| O=C(c1cnn(-c2ccc(Cl)cc2)n1)N1CCCC(COc2ccccc2)C1 (centres unmarked) [Compound 147] | 10 to 50 |
| O=C(CCc1cccc(C(F)(F)F)c1)N1CCCC(COc2ccccc2)C1 (centres unmarked) [Compound 150] | 10 to 50 |
| O=C(C1C[C@@H]2C[C@@H](C1)CC(F)(F)C2)N1CCCC(COc2ccccc2)C1 (some centres unmarked) [Compound 151] | 10 to 50 |
| COc1ccc(C(F)(F)C(=O)N2CCCC(COc3ccccc3)C2)cc1 (centres unmarked) [Compound 152] | 10 to 50 |
| COC(C(=O)N1CCCC(COc2ccccc2)C1)c1ccc(Cl)cc1 (centres unmarked) [Compound 153] | 10 to 50 |
| COc1cc(C(=O)N2CCCC(COc3ccccc3)C2)c(Cl)cc1Cl (centres unmarked) [Compound 155] | 10 to 50 |
| O=C(c1ccc(N2CCCCCC2)cc1)N1CCCC(COc2ccccc2)C1 (centres unmarked) [Compound 156] | 10 to 50 |
| O=C(Cc1cc(Cl)cs1)N1CCCC(COc2ccccc2)C1 (centres unmarked) [Compound 161] | 10 to 50 |
| Cc1nc(-n2cccc2)sc1C(=O)N1CCCC(COc2ccccc2)C1 (centres unmarked) [Compound 163] | 10 to 50 |

| Structure (SMILES) | EC50 [µM] |
| --- | --- |
| Cc1cc(C(=O)N2CCCC(COc3ccccc3)C2)c(C)n1C(C)C (centres unmarked) [Compound 170] | 10 to 50 |
| COC1(C(=O)N2CCCC(COc3ccccc3)C2)CCCCCCC1 (centres unmarked) [Compound 176] | 10 to 50 |
| CCCCC1(C(=O)N2CCCC(COc3ccccc3)C2)CCC1 (centres unmarked) [Compound 177] | 10 to 50 |
| CCCCC[C@H]1CC[C@H](C(=O)N2CCCC(COc3ccccc3)C2)CC1 (some centres unmarked) [Compound 178] | < 10 |
| CN1CCc2cc(C(=O)N3CCCC(COc4ccccc4)C3)ccc21 (centres unmarked) [Compound 181] | 10 to 50 |
| COc1ccc(CCCC(=O)N2CCCC(COc3ccccc3)C2)cc1 (centres unmarked) [Compound 182] | 10 to 50 |
| Cc1cccc(-c2ccccc2C(=O)N2CCCC(COc3ccccc3)C2)c1 (centres unmarked) [Compound 187] | 10 to 50 |
| O=C(c1cc(CC2CC2)on1)N1CCCC(COc2ccccc2)C1 (centres unmarked) [Compound 188] | > 100 |
| O=C(c1cc(-c2cccc(F)c2)no1)N1CCCC(COc2ccccc2)C1 (centres unmarked) [Compound 197] | 10 to 50 |
| O=C(Cc1ccc(OC(F)F)c(F)c1)N1CCCC(COc2ccccc2)C1 (centres unmarked) [Compound 198] | 10 to 50 |
| C[C@@H]1[C@H](C(=O)N2CCCC(COc3ccccc3)C2)CCN1c1ccccc1 (some centres unmarked) [Compound 199] | 10 to 50 |
| O=C(N1CCCC(COc2ccccc2)C1)C12CC3CC(CC(C3)C1)C2 (centres unmarked) [Compound 204] | 10 to 50 |
| CC(C)c1cc(C(=O)N2CCCC(COc3ccccc3)C2)c(C(C)C)o1 (centres unmarked) [Compound 207] | < 10 |
| O=C(C1CCCCC12CC2)N1CCCC(COc2ccccc2)C1 (centres unmarked) [Compound 209] | 10 to 50 |
| O=C(CC12CCC(CC1)C2)N1CCCC(COc2ccccc2)C1 (centres unmarked) [Compound 213] | 10 to 50 |
| O=C(c1ccc(F)c(OC(F)(F)F)c1)N1CCCC(COc2ccccc2)C1 (centres unmarked) [Compound 217] | 10 to 50 |
| O=C(c1cc2cccc(Cl)c2s1)N1CCCC(COc2ccccc2)C1 (centres unmarked) [Compound 218] | 10 to 50 |
